Reference: ChEMBL document CHEMBL3045446, “In vitro antimicrobial and antimycobacterial activity of some chalcones and their derivatives” (2013)
In brackets after ≈: the same amount, converted by molar mass. Activity calls are given as the source filed them. No cut-off for these calls is given here.

Assays:
[1] = tested on: Aspergillus fumigatus; test: Antimicrobial activity against Aspergillus fumigatus MTCC 343 assessed as growth inhibition after 48 hr by agar streak dilution method; type: functional; settings: MTCC 343, 48 h
[2] = tested on: Mycobacterium tuberculosis; test: Antituberculosis activity against Mycobacterium tuberculosis H37Rv assessed as growth inhibition after 12 to 28 days by L-J MIC method; type: functional; settings: for MIC: Mycobacterium tuberculosis, H37Rv
[3] = tested on: Candida albicans; test: Antimicrobial activity against Candida albicans MTCC 183 assessed as diameter of growth inhibition zone after 48 hr; type: functional
[4] = tested on: Shigella flexneri; test: Antimicrobial activity against Shigella flexneri MTCC1457 assessed as growth inhibition after 24 hr by agar streak dilution method; type: functional; settings: MTCC1457, 24 h
[5] = tested on: Salmonella typhi; test: Antimicrobial activity against Salmonella enterica subsp. enterica serovar Typhi MTCC 733 assessed as growth inhibition after 24 hr by agar streak dilution method; type: functional; settings: MTCC 733, 24 h
[6] = tested on: Aspergillus niger; test: Antimicrobial activity against Aspergillus niger MTCC 282 assessed as growth inhibition after 48 hr by agar streak dilution method; type: functional; settings: MTCC 282, 48 h
[7] = tested on: Salmonella typhi; test: Antimicrobial activity against Salmonella enterica subsp. enterica serovar Typhi MTCC 733 assessed as diameter of growth inhibition zone after 24 hr; type: functional
[8] = tested on: Shigella flexneri; test: Antimicrobial activity against Shigella flexneri MTCC1457 assessed as diameter of growth inhibition zone after 24 hr; type: functional
[9] = tested on: Aspergillus niger; test: Antimicrobial activity against Aspergillus niger MTCC 282 assessed as diameter of growth inhibition zone after 48 hr; type: functional
[10] = tested on: Escherichia coli; test: Antimicrobial activity against Escherichia coli MTCC 739 assessed as growth inhibition after 24 hr by agar streak dilution method; type: functional; settings: MTCC 739, 24 h
[11] = tested on: Staphylococcus aureus; test: Antimicrobial activity against Staphylococcus aureus MTCC 96 assessed as diameter of growth inhibition zone after 24 hr; type: functional
[12] = tested on: Pseudomonas aeruginosa; test: Antimicrobial activity against Pseudomonas aeruginosa MTCC 741 assessed as growth inhibition at 100 ug/ml after 24 hr by agar streak dilution method; type: functional, organism-based
[13] = tested on: Klebsiella pneumoniae; test: Antimicrobial activity against Klebsiella pneumoniae MTCC 109 assessed as diameter of growth inhibition zone after 24 hr; type: functional
[14] = tested on: Bacillus cereus; test: Antimicrobial activity against Bacillus cereus MTCC 430 assessed as growth inhibition at 100 ug/ml after 24 hr by agar streak dilution method; type: functional, organism-based
[15] = tested on: Aspergillus clavatus; test: Antimicrobial activity against Aspergillus clavatus MTCC 1323 assessed as growth inhibition after 48 hr by agar streak dilution method; type: functional; settings: MTCC 1323, 48 h
[16] = tested on: Staphylococcus aureus; test: Antimicrobial activity against Staphylococcus aureus MTCC 96 assessed as growth inhibition after 24 hr by agar streak dilution method; type: functional; settings: MTCC 96, 24 h
[17] = tested on: Escherichia coli; test: Antimicrobial activity against Escherichia coli MTCC 739 assessed as diameter of growth inhibition zone after 24 hr; type: functional
[18] = tested on: Klebsiella pneumoniae; test: Antimicrobial activity against Klebsiella pneumoniae MTCC 109 assessed as growth inhibition after 24 hr by agar streak dilution method; type: functional; settings: MTCC 109, 24 h
[19] = tested on: Aspergillus fumigatus; test: Antimicrobial activity against Aspergillus fumigatus MTCC 343 assessed as diameter of growth inhibition zone after 48 hr; type: functional
[20] = tested on: Proteus vulgaris; test: Antimicrobial activity against Proteus vulgaris MTCC 1771 assessed as growth inhibition at 100 ug/ml after 24 hr by agar streak dilution method; type: functional, organism-based
[21] = tested on: Candida albicans; test: Antimicrobial activity against Candida albicans MTCC 183 assessed as growth inhibition after 48 hr by agar streak dilution method; type: functional; settings: MTCC 183, 48 h
[22] = tested on: Aspergillus clavatus; test: Antimicrobial activity against Aspergillus clavatus MTCC 1323 assessed as diameter of growth inhibition zone after 48 hr; type: functional
[23] = tested on: Escherichia coli; test: Antimicrobial activity against Escherichia coli MTCC 739 assessed as growth inhibition at 100 ug/ml after 24 hr by agar streak dilution method; type: functional, organism-based
[24] = tested on: Bacillus cereus; test: Antimicrobial activity against Bacillus cereus MTCC 430 assessed as diameter of growth inhibition zone after 24 hr; type: functional
[25] = tested on: Bacillus cereus; test: Antimicrobial activity against Bacillus cereus MTCC 430 assessed as growth inhibition after 24 hr by agar streak dilution method; type: functional; settings: MTCC 430, 24 h
[26] = tested on: Shigella flexneri; test: Antimicrobial activity against Shigella flexneri MTCC1457 assessed as growth inhibition at 100 ug/ml after 24 hr by agar streak dilution method; type: functional, organism-based
[27] = tested on: Staphylococcus aureus; test: Antimicrobial activity against Staphylococcus aureus MTCC 96 assessed as growth inhibition at 100 ug/ml after 24 hr by agar streak dilution method; type: functional, organism-based
[28] = tested on: Proteus vulgaris; test: Antimicrobial activity against Proteus vulgaris MTCC 1771 assessed as diameter of growth inhibition zone after 24 hr; type: functional
[29] = tested on: Proteus vulgaris; test: Antimicrobial activity against Proteus vulgaris MTCC 1771 assessed as growth inhibition after 24 hr by agar streak dilution method; type: functional; settings: MTCC 1771, 24 h
[30] = tested on: Pseudomonas aeruginosa; test: Antimicrobial activity against Pseudomonas aeruginosa MTCC 741 assessed as growth inhibition after 24 hr by agar streak dilution method; type: functional; settings: MTCC 741, 24 h
[31] = tested on: Pseudomonas aeruginosa; test: Antimicrobial activity against Pseudomonas aeruginosa MTCC 741 assessed as diameter of growth inhibition zone after 24 hr; type: functional

| SMILES | MIC [1] [µg/mL] | growth inhibition (GI) [2] [%] | MIC [2] [µg/mL] | diameter of the inhibition zone (DIZ) [3] [mm] | MIC [4] [µg/mL] | MIC [5] [µg/mL] | MIC [6] [µg/mL] | diameter of the inhibition zone (DIZ) [7] [mm] | diameter of the inhibition zone (DIZ) [8] [mm] | diameter of the inhibition zone (DIZ) [9] [mm] | MIC [10] [µg/mL] | diameter of the inhibition zone (DIZ) [11] [mm] | diameter of the inhibition zone (DIZ) [13] [mm] | MIC [15] [µg/mL] | MIC [16] [µg/mL] | diameter of the inhibition zone (DIZ) [17] [mm] | MIC [18] [µg/mL] | diameter of the inhibition zone (DIZ) [19] [mm] | MIC [21] [µg/mL] | diameter of the inhibition zone (DIZ) [22] [mm] | further results |
| --- | --- | --- | --- | --- | --- | --- | --- | --- | --- | --- | --- | --- | --- | --- | --- | --- | --- | --- | --- | --- | --- |
| O=C(/C=C/c1ccc([N+](=O)[O-])cc1)c1ccc(Nc2cc(=O)oc3ccccc23)cc1 | 100 (≈ 242 µM) | 95 | 1000 (≈ 2420 µM) | 10 | 100 (≈ 242 µM) | 100 (≈ 242 µM) | 100 (≈ 242 µM) | 14 | 13 | 11 | 100 (≈ 242 µM) | <10 | 11 | 100 (≈ 242 µM) | 100 (≈ 242 µM) | <10 | 100 (≈ 242 µM) | <10 | 100 (≈ 242 µM) | 12 | growth inhibition (GI) [12]: inactive; growth inhibition (GI) [14]: inactive; growth inhibition (GI) [20]: inactive |
| O=C(/C=C/c1ccccc1)c1ccc(Nc2cc(=O)oc3ccccc23)cc1 | 100 (≈ 272 µM) | 95 | 1000 (≈ 2720 µM) | <10 | – | 100 (≈ 272 µM) | 100 (≈ 272 µM) | 11 | – | <10 | – | – | <10 | 100 (≈ 272 µM) | – | – | 100 (≈ 272 µM) | 12 | 100 (≈ 272 µM) | 15 | growth inhibition (GI) [23]: inactive; diameter of the inhibition zone (DIZ) [24]: <10 mm; MIC [25]: 100 µg/mL (≈ 272 µM); growth inhibition (GI) [12]: inactive; growth inhibition (GI) [26]: inactive; growth inhibition (GI) [20]: inactive; growth inhibition (GI) [27]: inactive |
| O=C(/C=C/c1ccc(Cl)cc1)c1ccc(Nc2cc(=O)oc3ccccc23)cc1 | 100 (≈ 249 µM) | 95 | 1000 (≈ 2490 µM) | 15 | 50 (≈ 124 µM) | 100 (≈ 249 µM) | 100 (≈ 249 µM) | 15 | 18 | 12 | 100 (≈ 249 µM) | 18 | 20 | 100 (≈ 249 µM) | 50 (≈ 124 µM) | 12 | 50 (≈ 124 µM) | 14 | 100 (≈ 249 µM) | 14 | diameter of the inhibition zone (DIZ) [28]: 17 mm; diameter of the inhibition zone (DIZ) [24]: 14 mm; MIC [25]: 100 µg/mL (≈ 249 µM); MIC [29]: 100 µg/mL (≈ 249 µM); MIC [30]: 100 µg/mL (≈ 249 µM); diameter of the inhibition zone (DIZ) [31]: 10 mm |
| Nc1nc(-c2ccc(Nc3cc(=O)oc4ccccc34)cc2)cc(-c2ccc(Cl)cc2Cl)n1 | 12.5 (≈ 26.3 µM) | 98 | 200 (≈ 421 µM) | 21 | 25 (≈ 52.6 µM) | 25 (≈ 52.6 µM) | 25 (≈ 52.6 µM) | 20 | 21 | 20 | 50 (≈ 105 µM) | 24 | 21 | 50 (≈ 105 µM) | 12.5 (≈ 26.3 µM) | 19 | 25 (≈ 52.6 µM) | 22 | 25 (≈ 52.6 µM) | 19 | diameter of the inhibition zone (DIZ) [28]: 25 mm; diameter of the inhibition zone (DIZ) [24]: 22 mm; MIC [25]: 12.5 µg/mL (≈ 26.3 µM); MIC [29]: 6.25 µg/mL (≈ 13.1 µM); MIC [30]: 25 µg/mL (≈ 52.6 µM); diameter of the inhibition zone (DIZ) [31]: 22 mm |
| CC(=O)N1N=C(c2ccc(Nc3cc(=O)oc4ccccc34)cc2)CC1c1ccccc1Br (configuration not stated) | 50 (≈ 99.5 µM) | 98 | 200 (≈ 398 µM) | 21 | 100 (≈ 199 µM) | 100 (≈ 199 µM) | 100 (≈ 199 µM) | 15 | 14 | 15 | 100 (≈ 199 µM) | 16 | 16 | 100 (≈ 199 µM) | 100 (≈ 199 µM) | 14 | 100 (≈ 199 µM) | 17 | 25 (≈ 49.8 µM) | 14 | diameter of the inhibition zone (DIZ) [28]: 15 mm; diameter of the inhibition zone (DIZ) [24]: 14 mm; MIC [25]: 100 µg/mL (≈ 199 µM); MIC [29]: 100 µg/mL (≈ 199 µM); MIC [30]: 100 µg/mL (≈ 199 µM); diameter of the inhibition zone (DIZ) [31]: 12 mm |
